# Experimental data taken from the supplement of paper PMC10307832.
# Legend:
# Assay in all cases: relative viability (nuclei count vs DMSO), 5 days (fraction); higher = more cells survive
# Wnt-C59 + AZD7762 = compound: CC1=NC=CC(=C1)C2=CC=C(C=C2)CC(=O)NC3=CC=C(C=C3)C4=CN=CC=C4 [Wnt-C59] + NC(=O)Nc1cc(-c2cccc(F)c2)sc1C(=O)N[C@H]1CCCNC1 [AZD7762] (partner 0.2 µM)
# Procedure, shortened: (§1)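 Values are medians from duplicate plates. Each reflects relative viability, defined as the nuclei count of treated wells over that of vehicle wells. Lung cancer cell lines in 1536-well plates were pin-tool dosed one day after seeding with one drug alone or with a fixed anchor-drug dose plus five library-drug doses (not always all listed) in √10 steps, then fixed, stained and imaged at 4× after 5 days.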
# Wnt-C59 + Vorinostat = compound: CC1=NC=CC(=C1)C2=CC=C(C=C2)CC(=O)NC3=CC=C(C=C3)C4=CN=CC=C4 [Wnt-C59] + O=C(CCCCCCC(=O)Nc1ccccc1)NO [Vorinostat] (partner 1 µM)
# Procedure, shortened: as §1
# Lapatinib + Crizotinib = compound: CS(=O)(=O)CCNCc1ccc(-c2ccc3ncnc(Nc4ccc(OCc5cccc(F)c5)c(Cl)c4)c3c2)o1 [Lapatinib] + C[C@@H](Oc1cc(-c2cnn(C3CCNCC3)c2)cnc1N)c1c(Cl)ccc(F)c1Cl [Crizotinib] (partner 1 µM)
# Procedure, shortened: as §1
# Wnt-C59 + Alpelisib = compound: CC1=NC=CC(=C1)C2=CC=C(C=C2)CC(=O)NC3=CC=C(C=C3)C4=CN=CC=C4 [Wnt-C59] + Cc1nc(NC(=O)N2CCC[C@H]2C(N)=O)sc1-c1ccnc(C(C)(C)C(F)(F)F)c1 [Alpelisib] (partner 2 µM)
# Procedure, shortened: as §1
Cell Line,relative viability (Wnt-C59 + AZD7762; first compound 0.001 µM),relative viability (Wnt-C59 + AZD7762; first compound 0.01 µM),relative viability (Wnt-C59 + AZD7762; first compound 0.03162 µM),relative viability (Wnt-C59 + AZD7762; first compound 0.1 µM),relative viability (Wnt-C59 + Vorinostat; first compound 0.001 µM),relative viability (Wnt-C59 + Vorinostat; first compound 0.01 µM),relative viability (Wnt-C59 + Vorinostat; first compound 0.03162 µM),relative viability (Wnt-C59 + Vorinostat; first compound 0.1 µM),relative viability (Lapatinib + Crizotinib; first compound 0.2 µM),relative viability (Lapatinib + Crizotinib; first compound 0.6325 µM),relative viability (Lapatinib + Crizotinib; first compound 2 µM),relative viability (Wnt-C59 + Alpelisib; first compound 0.001 µM),relative viability (Wnt-C59 + Alpelisib; first compound 0.01 µM),relative viability (Wnt-C59 + Alpelisib; first compound 0.03162 µM),relative viability (Wnt-C59 + Alpelisib; first compound 0.1 µM),relative viability (Lapatinib + Crizotinib; first compound 0.02 µM),relative viability (Lapatinib + Crizotinib; first compound 0.06325 µM)
NCI-H23,0.244,0.257,0.243,0.296,0.499,0.541,0.737,0.59,0.504,0.396,0.412,0.68,0.663,0.822,0.584,,
LU99A,0.374,0.491,0.338,0.313,0.486,0.474,0.484,0.442,0.53,0.582,0.597,0.496,0.566,0.604,0.538,0.591,0.464
NCI-H2085,0.901,0.865,1.06,0.957,0.758,0.717,0.811,0.756,0.759,0.807,0.616,0.998,0.97,0.888,0.904,0.824,0.996
NCI-H2126,1.01,1.02,1.02,1.05,0.841,0.62,0.788,0.76,1.02,1.04,0.865,0.742,0.703,0.788,0.723,,0.879
LCLC-103H,0.798,0.712,0.824,0.775,0.887,0.743,0.762,0.806,0.934,0.963,0.931,0.951,0.969,1.04,1.16,,0.93
NCI-H2347,0.726,0.738,0.779,0.698,0.649,0.644,0.572,0.717,0.722,0.649,0.671,0.936,1.01,0.9,0.984,0.7,0.654
NCI-H1437,1.14,1.16,1.18,1.08,0.838,0.806,0.829,0.8,0.94,0.914,1,1.07,0.917,1.09,0.946,0.85,0.919
NCI-H2170,0.762,0.688,0.992,0.836,0.803,0.795,0.834,0.809,0.694,0.475,0.223,0.813,0.675,0.987,0.841,1.13,0.904
